Assay type in all cases: in vivo
Details in all cases: 250 g/ha, evaluated after 13 days, five-point scale

Assay [1] relates to Amaranthus palmeri (AMAPA). As to the kind of experiment: Post-emergence herbicide glasshouse test. On the procedure: (§1) Seeds of a variety of test species are sown in standard soil in pots Amaranthus retoflexus (AMARE), Amaranthus palmeri (AMAPA), Echinochloa crus-galli (ECHCG), Ipomoea hederacea (IPOHE), Setaria faberi (SETFA). After cultivation for one day (pre-emergence) or after 8 days cultivation (post-emergence) under controlled conditions in a glasshouse (at 24/16° C., day/night; 14 hours light; 65% humidity), the plants are sprayed with an aqueous spray solution derived from the formulation of the technical active ingredient in acetone/water (50:50) solution containing 0.5% Tween 20 (polyoxyethelyene sorbitan monolaurate, CAS RN 9005-64-5). Compounds are applied at 250 g/ha unless otherwise stated. The test plants are then grown in a glasshouse under controlled conditions in a glasshouse (at 24/16° C., day/night; 14 hours light; 65% humidity) and watered twice daily. After 13 days for pre and post-emergence, the test is evaluated for the percentage damage caused to the plant. The biological activities are shown in the following table on a five-point scale (5=81-100%; 4=61-80%; 3=41-60%; 2=21-40%; 1=0-20%).

The subject of assay [2] is Amaranthus retoflexus (AMARE). As to the kind of experiment: Post-emergence herbicide glasshouse test. The method, then: as §1
Assay [3] relates to Echinochloa crus-galli (ECHCG). As to the kind of experiment: Post-emergence herbicide glasshouse test. The method, then:
as §1

Assay [4] concerns Ipomoea hederacea (IPOHE). As to the kind of experiment: Post-emergence herbicide glasshouse test. The method, then: as §1
The test system of assay [5] is Setaria faberi (SETFA). As to the kind of experiment: Post-emergence herbicide glasshouse test. On the procedure: as §1
Assay [6] has as its system Amaranthus palmeri (AMAPA). As to the kind of experiment: Pre-emergence herbicide glasshouse test. On the procedure: as §1
Assay [7] concerns Amaranthus retoflexus (AMARE). As to the kind of experiment: Pre-emergence herbicide glasshouse test. The method, then:
as §1

Assay [8] has as its system Echinochloa crus-galli (ECHCG). As to the kind of experiment: Pre-emergence herbicide glasshouse test. On the procedure: as §1
The test system of assay [9] is Ipomoea hederacea (IPOHE). As to the kind of experiment: Pre-emergence herbicide glasshouse test. On the procedure: as §1
The subject of assay [10] is Setaria faberi (SETFA). As to the kind of experiment: Pre-emergence herbicide glasshouse test. The method, then: as §1

Turning to `CC(=NOCC(F)(F)F)c1nc(C(F)(F)F)nc2cccc(Oc3ncc(Cl)cn3)c12` [Compound 1.018, 1-[5-(5-chloropyrimidin-2-yl)oxy-2-(trifluoromethyl)quinazolin-4-yl]-N-(2,2,2-trifluoroethoxy) ethanimine], the “percentage damage caused to the plant, AMAPA” value in assay [1] was 2 (2=21-40%); in assay [6] it was 1 (1=0-20%). Further, the “percentage damage caused to the plant, AMARE” value in assay [2] is given as 2 (2=21-40%); in [7] it was 1 (1=0-20%). Besides, the “percentage damage caused to the plant, ECHCG” value in assay [3] and in assay [8] was 1 (1=0-20%) each time. Moreover, the “percentage damage caused to the plant, IPOHE” value in assay [4] is reported as 2 (2=21-40%); in [9], 1 (1=0-20%). For the same compound, the “percentage damage caused to the plant, SETFA” value with Setaria faberi (SETFA) [5] and in the assay on Setaria faberi (SETFA) [10] was 1 (1=0-20%) each time.

Turning to `FC(F)(F)c1nc(CCCC2CC2)c2c(Oc3ncc(Cl)cn3)cccc2n1` [Compound 1.019], the “percentage damage caused to the plant, AMAPA” value in [1] and in assay [6] was 5 (5=81-100%) each time. The “percentage damage caused to the plant, AMARE” value in assay [2] is given as 5 (5=81-100%); in [7], 4 (4=61-80%). Further, the “percentage damage caused to the plant, ECHCG” value in [3] is reported as 2 (2=21-40%); in assay [8], 4 (4=61-80%). Further, the entries for the “percentage damage caused to the plant, IPOHE” value in assay [4] and in [9] were 3 (3=41-60%) and 1 (1=0-20%), respectively. Also, the “percentage damage caused to the plant, SETFA” value with Setaria faberi (SETFA) [5] and with Setaria faberi (SETFA) [10] was 5 (5=81-100%) in each case.

`ON=CCCc1nc(C(F)(F)F)nc2cccc(Oc3ncc(Cl)cn3)c12` [Compound 1.021]: the “percentage damage caused to the plant, AMAPA” value in [1] and in [6] was 4 (4=61-80%) each time. Further, the “percentage damage caused to the plant, AMARE” value in assay [2] is 5 (5=81-100%); in assay [7], 4 (4=61-80%). In addition, the figures for the “percentage damage caused to the plant, ECHCG” value in assay [3] and in assay [8] were 2 (2=21-40%) and 3 (3=41-60%), respectively. The “percentage damage caused to the plant, IPOHE” value in assay [4] was 2 (2=21-40%); in assay [9] it was 1 (1=0-20%). Also, the “percentage damage caused to the plant, SETFA” value with Setaria faberi (SETFA) [5] is listed as 2 (2=21-40%); in the assay with Setaria faberi (SETFA) [10] it was 3 (3=41-60%).

Turning to `CO/N=C\CCc1nc(C(F)(F)F)nc2cccc(Oc3ncc(Cl)cn3)c12` [Compound 1.022, (Z)-3-[5-(5-chloropyrimidin-2-yl)oxy-2-(trifluoromethyl)quinazolin-4-yl]-N-methoxy-propan-1-imine], the “percentage damage caused to the plant, AMAPA” value in [1] is listed as 4 (4=61-80%); in assay [6], 5 (5=81-100%). In addition, the “percentage damage caused to the plant, AMARE” value is 4 (4=61-80%) in assay [2] and 5 (5=81-100%) in assay [7]. Moreover, the “percentage damage caused to the plant, ECHCG” value was 4 (4=61-80%) in assay [3] and 5 (5=81-100%) in assay [8]. The “percentage damage caused to the plant, IPOHE” value is reported as 3 (3=41-60%) in [4] and 4 (4=61-80%) in assay [9]. Further, the “percentage damage caused to the plant, SETFA” value in the assay on Setaria faberi (SETFA) [5] is recorded as 4 (4=61-80%); with Setaria faberi (SETFA) [10], 5 (5=81-100%).

As for `CON1CCC(CCc2nc(C(F)(F)F)nc3cccc(Oc4ncc(Cl)cn4)c23)CC1` [Compound 1.023, 5-(5-chloropyrimidin-2-yl)oxy-4-[2-(1-methoxy-4-piperidyl)ethyl]-2-(trifluoromethyl)quinazoline], the “percentage damage caused to the plant, AMAPA” value in assay [1] and in assay [6] was 4 (4=61-80%) each time. The “percentage damage caused to the plant, AMARE” value in assay [2] and in assay [7] was 4 (4=61-80%) throughout. The “percentage damage caused to the plant, ECHCG” value in assay [3] is 1 (1=0-20%); in assay [8], 2 (2=21-40%). Moreover, the “percentage damage caused to the plant, IPOHE” value was 3 (3=41-60%) in assay [4] and 1 (1=0-20%) in [9]. Further, the “percentage damage caused to the plant, SETFA” value with Setaria faberi (SETFA) [5] and with Setaria faberi (SETFA) [10] was 1 (1=0-20%) throughout.

Consider `COCCCc1nc(C(F)(F)F)nc2cccc(Oc3ncc(Cl)cn3)c12` [Compound 1.024], for which the results for the “percentage damage caused to the plant, AMAPA” value in assay [1] and in assay [6] were 3 (3=41-60%) and 5 (5=81-100%), respectively. Also, the “percentage damage caused to the plant, AMARE” value was 4 (4=61-80%) in assay [2] and 5 (5=81-100%) in assay [7]. For the same compound, the “percentage damage caused to the plant, ECHCG” value in [3] and in assay [8] was 5 (5=81-100%) throughout. Further, the figures for the “percentage damage caused to the plant, IPOHE” value in assay [4] and in [9] were 3 (3=41-60%) and 5 (5=81-100%), respectively. In addition, the “percentage damage caused to the plant, SETFA” value in the assay on Setaria faberi (SETFA) [5] and in the assay on Setaria faberi (SETFA) [10] was 4 (4=61-80%) in each case.

`CO/N=C/CCc1nc(C(F)(F)F)nc2cccc(Oc3ncc(Cl)cn3)c12` [Compound 1.025, (E)-3-[5-(5-chloropyrimidin-2-yl)oxy-2-(trifluoromethyl)quinazolin-4-yl]-N-methoxy-propan-1-imine]: the results for the “percentage damage caused to the plant, AMAPA” value in [1] and in [6] were 4 (4=61-80%) and 5 (5=81-100%), respectively. The “percentage damage caused to the plant, AMARE” value in assay [2] and in assay [7] was 5 (5=81-100%) in each case. Further, the “percentage damage caused to the plant, ECHCG” value in [3] and in assay [8] was 5 (5=81-100%) each time. The “percentage damage caused to the plant, IPOHE” value in assay [4] and in assay [9] was 4 (4=61-80%) each time. Further, the “percentage damage caused to the plant, SETFA” value with Setaria faberi (SETFA) [5] and with Setaria faberi (SETFA) [10] was 5 (5=81-100%) in each case.

As for `O=C(c1ccc(Br)cn1)c1nc(C(F)(F)F)nc2cccc(Oc3ncc(Cl)cn3)c12` [Compound 1.026], the “percentage damage caused to the plant, AMAPA” value is listed as 2 (2=21-40%) in assay [1] and 4 (4=61-80%) in assay [6]. Besides, the “percentage damage caused to the plant, AMARE” value is 1 (1=0-20%) in [2] and 4 (4=61-80%) in assay [7]. The “percentage damage caused to the plant, ECHCG” value in assay [3] and in [8] was 1 (1=0-20%) in each case. For the same compound, the “percentage damage caused to the plant, IPOHE” value in assay [4] and in assay [9] was 1 (1=0-20%) each time. The “percentage damage caused to the plant, SETFA” value in the assay with Setaria faberi (SETFA) [5] and in the assay on Setaria faberi (SETFA) [10] was 1 (1=0-20%) each time.

As for `O=C(c1ccc(F)cn1)c1nc(C(F)(F)F)nc2cccc(Oc3ncc(Cl)cn3)c12` [Compound 1.027], the “percentage damage caused to the plant, AMAPA” value is 1 (1=0-20%) in assay [1] and 2 (2=21-40%) in assay [6]. Besides, the “percentage damage caused to the plant, AMARE” value in [2] and in assay [7] was 2 (2=21-40%) each time. Moreover, the “percentage damage caused to the plant, ECHCG” value in assay [3] and in assay [8] was 1 (1=0-20%) each time. For the same compound, the “percentage damage caused to the plant, IPOHE” value in [4] and in [9] was 1 (1=0-20%) throughout. Further, the “percentage damage caused to the plant, SETFA” value in the assay on Setaria faberi (SETFA) [5] and with Setaria faberi (SETFA) [10] was 1 (1=0-20%) in each case.

In the case of `CC(=O)c1nc(C(F)(F)F)nc2cccc(Oc3ncc(Cl)cn3)c12` [Compound 1.028, 1-[5-(5-chloropyrimidin-2-yl)oxy-2-(trifluoromethyl)quinazolin-4-yl]ethanone], the entries for the “percentage damage caused to the plant, AMAPA” value in assay [1] and in [6] were 4 (4=61-80%) and 5 (5=81-100%), respectively. The “percentage damage caused to the plant, AMARE” value was 4 (4=61-80%) in assay [2] and 5 (5=81-100%) in assay [7]. Further, the “percentage damage caused to the plant, ECHCG” value in [3] is 1 (1=0-20%); in assay [8], 2 (2=21-40%). In addition, the results for the “percentage damage caused to the plant, IPOHE” value in assay [4] and in assay [9] were 3 (3=41-60%) and 1 (1=0-20%), respectively. The “percentage damage caused to the plant, SETFA” value with Setaria faberi (SETFA) [5] was 2 (2=21-40%); in the assay on Setaria faberi (SETFA) [10], 3 (3=41-60%).
